From patent publication US12133855B2, “Lipid-like nanocomplexes and uses thereof” (Trustees of Tufts College, priority 2018, dated 2024)

Legend:
[1] = Hydrodynamic size and polydispersity of lipidoid nanoparticles by DLS; type: physicochemical; details: blank LNPs
Protocol: (§1) All chemicals used for lipidoids synthesis were purchased from Sigma-Aldrich without further purification unless otherwise noted. (−30)GFP-Cre recombinase, S. pyogenes Cas9 (spCas9) and sgRNA were generated following the protocols reported in Wang at al., Proc. Natl. Acad. Sci. USA, 2016, 113, 2868-2873 (“Wang”). HeLa-DsRed and GFP-HEK cells were cultured in Dulbecco's modified eagle's medium (DMEM, Sigma-Aldrich) with 10% fetal bovine serum (FBS, Sigma-Aldrich) and 1% penicillin-streptomycin (Gibco). All ^1H NMR spectra were recorded on a Bruker AVIII 500 MHz NMR spectrometer operated in the Fourier transform mode. Hydrodynamic size and polydispersity index of nanoparticles were measured by Zeta-PALS particle size analyzer (Brookhaven Instruments). The apparent pKa values of lipidoids were determined using 2-(p-toluidinynaphthalene-6-sulphonic acid) (TNS, Sigma-Aldrich) as fluorescent probe following the protocols reported in Heyes et al., J. Controlled Release, 2005, 107, 276-287. TEM measurements were performed on a FEI Technai Transmission Electron Microscope. Fluorescence images of tissue slices were obtained using BZ-X Analyzer fluorescence microscope.
Lipidoids nanoparticles (LNPs) were fabricated in sodium acetate buffer (25 mM, pH 5.2) by following the simple ultrasonication and vortex procedures described above. Hydrodynamic sizes and polydispersity index (PDI) of LNPs were measured by dynamic laser scattering (DLS) analysis.
Lipidoids were fabricated into nanoparticles for all delivery applications.
In this context, two strategies were tested, i.e., synthesizing new OCholB-tailed lipidoids with single tail rather than full substitution, and adding helper lipids (phospholipids) into fully substituted OCholB LNPs. […] The delivery efficacies of the single-tailed LNPs were first tested using GFP mRNA against HeLa cells (lipidoid/mRNA=10/1; [mRNA]=0.86 μg mL^−1; 24 h of exposure). […] We then tried to add helper lipids into the original two-tailed OCholB lipidoid nanoparticles formulations. As a proof-of-concept, DOPE was mixed with OCholB lipidoids (lipidoid/DOPE=1/1, weight ratio) and nanoparticles were fabricated (noted as 75-OCholB-F, 76-OCholB-F, and 77-OCholB-F) and loaded with Cas9 mRNA and sgRNA (mRNA/sgRNA=1/1, weight ratio).

[2] = TEM size of lipidoid nanoparticles; type: physicochemical; details: TEM images of LNPs
Protocol: as §1
(§2) The morphologies of LNPs were further studied by the transmission electron microscopy (TEM). […] Subsequently, the stability of LNPs thus prepared was examined by DLS and fluorescence measurements.
The morphologies of OCholB fully substituted LNPs were then examined by transmission electron microscopy (TEM). […] In contrast, the vesicular structures were not well-formed for 87-OCholB and 90-OCholB compared to their counterparts, and amorphous aggregates were observed instead.

HeLa-DsRed cells [3] = experiment: Intracellular delivery of (−30)GFP-Cre/LNP (GFP-positive cells); type: cell-based; details: 25 nM (−30)GFP-Cre, lipidoid 3.3 mg/L; for green fluorescence emission (fluorescence microscopy): 6 h incubation; for GFP-positive cells: flow cytometry, 6 h
Protocol: (§3) The final (−30)GFP-Cre protein concentration is 25 nM, and lipidoid concentration is 3.3 mg/L. For the gene recombination functional study, HeLa-DsRed cells were treated with same conditions and the red fluorescence emission from DsRed was analyzed by flow cytometry 24 h after delivery.
A Cre recombinase protein fused to a negatively supercharged GFP variant ((−30)GFP-Cre) was used as a model cargo protein. The (−30)GFP-Cre protein was able to complex with cationic LNPs through electrostatic attraction and other types supramolecular interactions. The cellular uptake of LNPs could be determined by direct analysis of intracellular GFP fluorescent intensity as reported in Wang. HeLa-DsRed cells were used in this study, which expressed red fluorescent DsRed upon Cre-mediated recombination to facilitate the functional study of delivered proteins in the following study.
The (−30)GFP-Cre protein loaded LNPs (GFP-Cre/LNPs) were prepared at first by simply mixing precalculated amount of aqueous solution of LNPs and protein at ambient conditions. For the intracellular delivery, after incubation with GFP-Cre/LNPs nanoparticles for 6 h, the GFP-positive cells were observed using fluorescence microscopy, harvested and counted by flow cytometry. […] The intracellular (−30)GFP-Cre protein delivery efficiencies were further quantified by flow cytometry.

HeLa-DsRed cells [4] = experiment: Cre-mediated gene recombination (DsRed expression) after (−30)GFP-Cre/LNP delivery; type: cell-based; details: 24 h; 25 nM (−30)GFP-Cre; lipidoid 3.3 mg/L
Protocol: as §3
The top 12 of LNPs identified through intracellular delivery screening experiments were further tested for gene recombination using HeLa-DsRed model cells. The expression of DsRed from Cre protein mediated gene recombination was analyzed after 24 h of co-incubation with free (−30)GFP-Cre protein and protein loaded LNPs. […] Most of the test LNPs, on the other hand, efficiently delivered (−30)GFP-Cre protein and induced gene recombination, with 14-46% of the cells positive for DsRed.

Ai14 mice = experiment: In vivo (−30)GFP-Cre delivery with formulated O17 LNPs, intravenous, tdTomato expression; set-up: species or system mouse; details: day 0 and day 5, 100 μg protein each, organs at day 20
Protocol: Formulated LNPs (lipidoid/Cholesterol/DOPE/DSPE-PEG2k=16/4/1/4, weight ratio) were prepared for protein loading and mice injection. Ai14 mice were housed in a temperature and humidity controlled facility with a 12 h light/dark cycle. Two mice in each group were injected with (−30)GFP-Cre/LNPs formulations on day 0 and 5, with 100 μg protein for each injection. Organs including heart, liver, spleen, lung and kidney from all groups were collected 20 days after injections. The tissues were fixed overnight in 4% paraformaldehyde (PFA) before being sectioning into 10 μm slices. The slices were collected and stained with DAPI for fluorescence imaging.
Upon Cre mediated gene recombination, the STOP cassette was removed, resulting in tdTomato expression. Considering the different performances of cargo loaded LNPs in vitro and in vivo, three LNPs with same amine heads and different tails (76-O17O, 76-O17S and 76-O17Se) were tested in this study. Formulated LNPs (lipidoid/cholesterol/DOPE/DSPE-PEG2k=16/4/1/4, weight ratio) were prepared. Mice were injected (intravenous injection) with (−30)GFP-Cre loaded the formulated LNPs (GFP-Cre/76-O17O, GFP-Cre/76-O17S, and GFP-Cre/76-O17Se) at day 0 and day 5 (100 μg of protein for each injection). […] Fluorescence images with lower magnification and larger field of view were obtained. […]

[5] = Storage stability of LNPs (time-dependent DLS, DiO/DiI FRET); type: physicochemical; details: DiO and DiI loaded LNPs, five days of storage
Protocol: as §2
The cell (HeLa and HeLa-DsRed cell lines) internalization studies were conducted using small molecular hydrophobic (nile red) and hydrophilic (calcein) fluorescent dyes and macromolecular fluorescent recombinant protein ((−30)GFP-Cre) loaded OCholB LNPs. The stabilities of cargo-loaded LNPs were examined at first using time-dependent DLS and fluorescence measurements.

GFP-HEK cells [6] = experiment: Cas9:sgRNA RNP delivery, GFP gene knockout; type: cell-based; details: 48 h; 25 nM Cas9:sgRNA RNP; lipidoid 3.3 mg/L
Protocol: For CRISPR/Cas9 gene knockout study, GFP-HEK cells were seeded in 48-well plate with a density of 2×10^4 cell/well. After 24 h of incubation, Cas9:sgRNA/LNP nanoparticles were added to the cells and incubated for 4 h, followed by media changed. After 48 h of incubation, the green emission from GFP was analyzed by flow cytometry.
For the intracellular delivery, GFP-HEK cells were harvested after treating with Cas9:sgRNA/LNPs nanocomplexes for 48 h. GFP gene knockout efficacy was further evaluated by flow cytometry.

GFP-HEK cells [7] = system: GFP-HEK cells
Protocol: Cell viability was measured by the standard MTT assay. HeLa-DsRed or GFP-HEK cells were seeded into 96-well plate with a density of 5×10^3 cell/well. (−30)GFP-Cre/LNP or Cas9:sgRNA/LNP nanoparticles were added after 24 h of incubation. The final concentration of protein is 25 nM and LNP is 3.3 mg/L. After incubating for 24 h or 48 h, the MTT reagent (5 mg/mL, in 30 μL PBS buffer) was added and the cells were incubated for another 4 h at 37° C. The cell culture media were then carefully removed and 200 μL of DMSO were added. The DMSO solution was transferred into another 96-well plate and the absorbance at 570 nm was recorded by microplate reader. All experiments were performed in quadruplicate.
In vitro cytotoxicity of Cas9:sgRNA/LNPs against GFP-HEK cells was also evaluated by the MTT assay.

HeLa cells [8] = experiment: Internalization of Dox loaded nanoparticles (flow cytometry); type: cell-based; details: 8 h of exposure
Protocol: After 24 h of incubation at 37° C., 5% CO2, Dox, CPT or Oxa loaded nanoparticles were added to the cells and incubated for 8 h followed by media change. The cells were then incubated for another 40 h before cell viability analysis.
Doxorubicin hydrochloride (Dox) (water soluble), and camptothecin (CPT) and oxaliplatin (Oxa) (water insoluble) were encapsulated into LNPs (see experimental section) and tested against HeLa cells. […] Then the internalization of Dox loaded 75-OCholB LNP (Dox/75-OCholB) was studied after 8 h of exposure using flow cytometry.

HeLa cells [9] = experiment: Internalization of calcein loaded nanoparticles; type: cell-based; details: 8 h of exposure
Protocol: The internalization kinetics and efficiencies of OCholB LNPs were then studied using NR loaded LNPs and HeLa cells. […] Next, all of the NR delivery efficiencies of eight OCholB LNPs were determined after 8 h of exposure. […] Representative fluorescent images of NR/LNPs (NR/75-OCholB, NR/76-OCholB and NR/77-OCholB) treated HeLa cells are shown in FIG. 12D, from which it is easily observed that NR was delivered into the cells and mainly distributed in cytoplasm, by OCholB LNPs. Next, the internalization of negatively charged hydrophilic fluorescent dye, calcein, was studied. […] Next, the use of OCholB LNPs for the intracellular delivery of macromolecular cargo was explored, using fluorescent recombinant (−30)GFP-Cre protein and HeLa-DsRed cells as the model system. […] Delivery efficiency was tested at a range of (−30)GFP-Cre protein concentrations (25, 50 and 100 nM), with a consistent lipid/protein ratio (i.e., delivery with the final lipid concentration of 1.7, 3.3, and 6.6 μg mL^−1 respectively). 33.2%, 43.8% and 74% of GFP positive (GFP^+) cells were recorded for (−30)GFP-Cre/Lpf2k treated cells with the concentration of (−30)GFP-Cre 25 nM, 50 nM and 100 nM, respectively. […]

| SMILES | averaged hydrodynamic diameter (<Dh>) [1] | polydispersity index (PDI, μ2/I^2) [1] | size measured by TEM [2] | green fluorescence emission (fluorescence microscopy) (HeLa-DsRed cells [3]) | GFP knockout (GFP-negative cells) (GFP-HEK cells [6]) | cell viability (GFP-HEK cells [7]) | further results |
| --- | --- | --- | --- | --- | --- | --- | --- |
| CCCCCCCCCCCCCCOCCOC(=O)CCN(CCC(=O)OCCOCCCCCCCCCCCCCC)CCN1CCCC1 [Lipidoid 76-O17O] | 170.1 nm | 0.37 | 145 nm | bright green fluorescence emission | – | – | – |
| CCCCCCCCCCCCCCSCCOC(=O)CCN(CCC(=O)OCCSCCCCCCCCCCCCCC)CCN1CCCC1 [Lipidoid 76-O17S] | 114.3 nm | 0.24 | 94 nm | bright green fluorescence emission | – | – | cells positive for DsRed (protein transfection efficiency) (HeLa-DsRed cells [4]): 40.8%; tdTomato signal in sections of lung (Ai14 mice): strong tdTomato signals |
| CCCCCCCCCCCCCC[Se]CCOC(=O)CCN(CCC(=O)OCC[Se]CCCCCCCCCCCCCC)CCN1CCCC1 [Lipidoid 76-O17Se] | 129.4 nm | 0.18 | 133 nm | bright green fluorescence emission | 50.2% | 76.3% | FRET ratio (I575/I575+I505) variations [5]: negligible; cells positive for DsRed (protein transfection efficiency) (HeLa-DsRed cells [4]): 36.1%; tdTomato signal in sections of lung (Ai14 mice): strong tdTomato signals |
| CCCCCCCCCCCCCC[Se]CCOC(=O)CCN(CCCN(C)C)CCC(=O)OCC[Se]CCCCCCCCCCCCCC [Lipidoid 80-O17Se] | – | – | – | – | 57.7% | 68.2% | GFP-positive cells (HeLa-DsRed cells [3]): 39% |
| CCCCCCCCCCCCCC[Se]CCOC(=O)CCN(CCCN(CC)CC)CCC(=O)OCC[Se]CCCCCCCCCCCCCC [Lipidoid 81-O17Se] | – | – | – | – | 54.7% | 97.7% | – |
| CCCCCCCCCCCCCC[Se]CCOC(=O)CCN(CCCN(C)C)CCCN(CCC(=O)OCC[Se]CCCCCCCCCCCCCC)CCC(=O)OCC[Se]CCCCCCCCCCCCCC [Lipidoid 400-O17Se] | – | – | – | – | 57.4% | 66.7% | GFP-positive cells (HeLa-DsRed cells [3]): 42% |
| COc1cccc2c1C(=O)c1c(O)c3c(c(O)c1C2=O)C[C@@](O)(C(=O)CO)C[C@@H]3O[C@H]1C[C@H](N)[C@H](O)[C@H](C)O1.Cl [free Dox, Doxorubicin hydrochloride] | – | – | – | – | – | – | mean fluorescence intensity vs untreated control cells (internalization) (HeLa cells [8]): could be readily internalized |
| O=C(O)CN(CC(=O)O)Cc1cc2c(cc1O)Oc1cc(O)c(CN(CC(=O)O)CC(=O)O)cc1C21OC(=O)c2ccccc21 [free calcein, calcein, reference compound] | – | – | – | – | – | – | mean fluorescent intensity vs free calcein-treated cells (HeLa cells [9]): cannot enter into the cells efficiently |
